The target of one series is T1, Alpha amylase (Homo sapiens, UniProt P0DUB6).
T1 sequence (P0DUB6 whole entry): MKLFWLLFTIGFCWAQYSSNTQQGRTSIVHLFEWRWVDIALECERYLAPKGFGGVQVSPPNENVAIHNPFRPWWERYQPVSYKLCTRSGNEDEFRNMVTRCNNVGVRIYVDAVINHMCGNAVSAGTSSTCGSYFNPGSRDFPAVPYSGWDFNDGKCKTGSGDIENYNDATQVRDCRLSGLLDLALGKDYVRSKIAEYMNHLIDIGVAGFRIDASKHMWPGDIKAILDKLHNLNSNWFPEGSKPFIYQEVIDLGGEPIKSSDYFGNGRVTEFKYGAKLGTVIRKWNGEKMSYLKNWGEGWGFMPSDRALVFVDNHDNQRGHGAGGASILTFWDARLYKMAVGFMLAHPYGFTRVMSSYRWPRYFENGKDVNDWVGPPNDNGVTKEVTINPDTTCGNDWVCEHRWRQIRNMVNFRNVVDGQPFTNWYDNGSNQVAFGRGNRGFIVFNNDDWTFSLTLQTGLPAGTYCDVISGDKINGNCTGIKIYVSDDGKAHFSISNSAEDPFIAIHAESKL
The experiment in a line: Inhibition of alpha-amylase (unknown origin).

Series [1] deals with Phospholipase A2, major isoenzyme (Sus scrofa, UniProt P00592). The experiment in a line: Inhibition of porcine PLA2G1B.
Sequence of Phospholipase A2, major isoenzyme (P00592 whole entry): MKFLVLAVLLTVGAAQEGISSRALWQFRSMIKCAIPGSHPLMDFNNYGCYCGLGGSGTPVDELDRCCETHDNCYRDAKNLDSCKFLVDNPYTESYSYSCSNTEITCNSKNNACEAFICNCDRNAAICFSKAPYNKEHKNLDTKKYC
The target of series [2] is T2, Group XIIA secretory phospholipase A2 (Homo sapiens, UniProt Q9BZM1).
T2 sequence (Q9BZM1 whole entry): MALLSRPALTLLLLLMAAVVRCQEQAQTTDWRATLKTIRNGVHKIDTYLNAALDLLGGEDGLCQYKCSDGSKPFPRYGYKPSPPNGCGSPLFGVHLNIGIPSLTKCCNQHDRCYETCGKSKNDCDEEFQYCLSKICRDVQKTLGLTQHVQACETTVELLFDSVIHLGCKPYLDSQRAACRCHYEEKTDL
The experiment in a line: Inhibition of human PLA2G12A.

In another series the target is T3, Phospholipase A2 group V (Homo sapiens, UniProt P39877).
T3 sequence (P39877 whole entry): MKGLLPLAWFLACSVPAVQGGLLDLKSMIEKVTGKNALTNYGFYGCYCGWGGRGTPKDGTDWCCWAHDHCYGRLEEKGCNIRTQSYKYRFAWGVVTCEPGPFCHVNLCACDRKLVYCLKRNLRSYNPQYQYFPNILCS
The series can be described thus: Inhibition of human PLA2G5.

In series [3] the target is T4, Phospholipase A2, membrane associated (Homo sapiens, UniProt P14555).
T4 sequence (P14555 whole entry): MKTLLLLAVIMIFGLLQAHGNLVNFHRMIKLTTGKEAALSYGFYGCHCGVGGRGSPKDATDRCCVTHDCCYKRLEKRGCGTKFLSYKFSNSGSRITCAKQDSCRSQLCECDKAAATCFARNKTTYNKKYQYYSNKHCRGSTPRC
The experiment in a line: Inhibition of human PLA2G2A.

The target in series [4] is T5, Group 10 secretory phospholipase A2 (Homo sapiens, UniProt O15496).
T5 sequence (O15496 whole entry): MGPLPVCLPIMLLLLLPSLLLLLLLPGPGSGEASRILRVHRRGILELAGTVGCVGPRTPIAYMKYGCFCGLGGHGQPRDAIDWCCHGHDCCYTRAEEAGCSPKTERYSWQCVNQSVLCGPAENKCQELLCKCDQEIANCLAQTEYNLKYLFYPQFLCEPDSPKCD
The experiment in a line: Inhibition of human PLA2G10.

The next series concerns HeLa S3. The series can be described thus: Cytotoxicity against human HeLa S3 cells. The series is classed as functional, cell-based.
The next series concerns Bacillus anthracis. The experiment in a line: Antibacterial activity against Bacillus anthracis. Format: functional.
In a further series the test system is Klebsiella pneumoniae. The experiment in a line: Antibacterial activity against Klebsiella pneumoniae. Format: functional.
The test system of series [5] is Staphylococcus aureus. The experiment in a line: Antibacterial activity against Staphylococcus aureus. Format: functional.
For the next series, the system named is Bacillus subtilis. The experiment in a line: Antibacterial activity against Bacillus subtilis. The series is classed as functional.
The next series relates to Escherichia coli. The series can be described thus: Antibacterial activity against Escherichia coli. Format: functional.
Another series has as its system Shigella dysenteriae. The series can be described thus: Antibacterial activity against Shigella dysenteriae. The series is classed as functional.
The next series relates to Bacillus cereus. The series can be described thus: Antibacterial activity against Bacillus cereus. The series is classed as functional.
Series [6] has as its system Geobacillus stearothermophilus. The series can be described thus: Antibacterial activity against Bacillus stearothermophilus. The series is classed as functional.
The test system of a further series is Pseudomonas aeruginosa. The experiment in a line: Antibacterial activity against Pseudomonas aeruginosa. Format: functional.
A further series has as its system Candida. The experiment in a line: Antifungal activity against Candida species. Format: functional.
Another series has as its system Rattus norvegicus. The series can be described thus: Antiinflammatory activity in rat model of hind paw edema assessed as paw thickness at 0.9 mg per 100 g of body weight measured after 4 hrs. Format: functional.
A short description of series [7]: Aqueous solubility of the compound at pH 7.4. Format: physicochemical. The conditions noted are these: buffer.
Series [8] is described as follows: Binding affinity to estrogen receptor (unknown origin). The arrangement: species or system Homo sapiens.
For series [9], the species on record is Homo sapiens. The series can be described thus: Binding affinity to estrogen receptor (unknown origin) relative to control.
Series [10] is filed under the species Homo sapiens. The series can be described thus: Binding affinity to Creatine kinase (CK) (unknown origin) relative to control.
Series [11] in a line: Binding affinity to Creatine kinase (CK) (unknown origin). The arrangement: species or system Homo sapiens.
A short description of series [12]: Metabolic stability in rat liver microsomes assessed as half-life. The series is classed as ADME, Microsome.
Series [13] is described as follows: Displacement of [3H]AMPA from NMDA receptor (unknown origin). Format: protein-complex assay, Homo sapiens.
For series [14], the target named is Glutamate [NMDA] receptor. The series can be described thus: Displacement of [3H]kainic acid from NMDA receptor (unknown origin). Format: protein-complex assay, Homo sapiens.
The target in series [15] is Glutamate [NMDA] receptor. The series can be described thus: Displacement of [3H]DCKA from NMDA receptor (unknown origin). The series is classed as protein-complex assay, Homo sapiens.
Series [16] deals with Glutamate [NMDA] receptor. The experiment in a line: Displacement of [3H]CGP-39653 from NMDA receptor (unknown origin). The series is classed as protein-complex assay, Homo sapiens.
The target in series [17] is Glutamate [NMDA] receptor (Homo sapiens) (UniProt Q05586+Q12879+Q13224+O15399+O60391+Q14957+Q8TCU5). The series can be described thus: Displacement of [3H]DCKA from NMDA receptor (unknown origin) at 10 ng/ml relative to control. Format: protein-complex assay. The following applies: filed as antagonist.
Series [18] has as its system Anopheles sp. The experiment in a line: Larvicidal activity against Anopheles at 1 ug/ml. The following applies: dose 1.0 µg/ml. Format: functional.
For series [19], the system named is Anopheles sp. The experiment in a line: Larvicidal activity against Anopheles at 0.1 ug/ml. The series is classed as functional. The following applies: dose 0.1 µg/ml.
Series [20] concerns Anopheles sp. The series can be described thus: Larvicidal activity against Anopheles at 0.25 ug/ml. The series is classed as functional. The conditions noted are these: dose 0.25 µg/ml.
The subject of series [21] is Anopheles sp. The experiment in a line: Larvicidal activity against Anopheles at 0.5 ug/ml. The series is classed as functional. The conditions noted are these: dose 0.5 µg/ml.
The next series relates to Trypanosoma brucei. The experiment in a line: Antitrypanosomal activity against Trypanosoma brucei. The series is classed as functional, organism-based.
Series [22] can be described thus: Ratio IC50 for cytotoxicity against rat myoblast L6 cells over IC50 for antitrypanosomal activity against Trypanosoma brucei. The series is classed as toxicity, cell-based. The conditions noted are these: read-out: Ratio IC50.
The nature of series [23]: Cytotoxicity against rat myoblast L6 cells. Format: toxicity, cell-based.
In series [24] the target is Kappa-type opioid receptor (Homo sapiens, UniProt P41145). The series can be described thus: Antagonist at KOR expressed in human U2OS cells measured by High content imaging based beta-arrestin translocation assay. The series is classed as cell-based.
Sequence of Kappa-type opioid receptor (P41145 whole entry): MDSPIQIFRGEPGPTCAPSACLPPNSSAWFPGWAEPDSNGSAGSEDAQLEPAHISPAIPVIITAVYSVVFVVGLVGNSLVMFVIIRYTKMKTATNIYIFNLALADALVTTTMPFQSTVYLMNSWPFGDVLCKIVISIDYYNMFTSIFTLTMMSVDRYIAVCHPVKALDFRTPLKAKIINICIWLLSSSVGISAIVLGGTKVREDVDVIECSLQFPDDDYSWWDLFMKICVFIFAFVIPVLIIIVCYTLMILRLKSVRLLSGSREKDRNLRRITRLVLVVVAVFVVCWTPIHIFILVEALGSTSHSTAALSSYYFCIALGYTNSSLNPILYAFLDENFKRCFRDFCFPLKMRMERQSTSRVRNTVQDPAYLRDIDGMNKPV
A further series has as its system Enterococcus faecalis. The series can be described thus: Antibacterial activity against Enterococcus faecalis. Format: functional.
For series [25], the system named is Staphylococcus aureus. The series can be described thus: Antibacterial activity against methicillin-resistant Staphylococcus aureus. The series is classed as functional.
Series [26] has as its system Staphylococcus aureus. The experiment in a line: Antibacterial activity against methicillin-sensitive Staphylococcus aureus. Format: functional.

Structures are written as SMILES. ≈ marks a conversion by molar mass, not a printed value. A value given as a limit tells only on which side of the number the result lay.

For the compound `O=c1[nH]c2ccccc2n2c(-c3ccc(O)cc3O)ccc12`, the IC50 at Alpha amylase came out at 1087.43 µM; in [1] it was 14.8 µM; in series [2] it was 0.91 µM; against Phospholipase A2 group V it was 1.05 µM; in series [3] it was 1.32 µM; in series [4] it was 0.61 µM.

In the case of `CCC(C)C1Nc2ccccc2NC1=O` (centres undefined), the IC50 in the series with HeLa S3 amounted to 17.2 µM. This counts as double-digit micromolar.

Consider `C/C(=N\Nc1nc2ccccc2[nH]c1=O)c1cc2cc(Cl)ccc2oc1=O`, for which the minimum inhibitory concentration (MIC) with Bacillus anthracis was found to be 7.8 µg/mL (≈ 20.5 µM); against Klebsiella pneumoniae, 7.8 µg/mL (≈ 20.5 µM); with Staphylococcus aureus [5], 15.6 µg/mL (≈ 41 µM); in the series on Bacillus subtilis, 7.8 µg/mL (≈ 20.5 µM); against Escherichia coli it was 7.8 µg/mL (≈ 20.5 µM); against Shigella dysenteriae, 15.6 µg/mL (≈ 41 µM). Moreover, the MIC (in the series on Bacillus cereus; in [6]) was 7.8 µg/mL (≈ 20.5 µM) in each case.

Regarding `CCOC(=O)c1nc2ccc(C)cc2[nH]c1=O`, the minimal inhibitory concentration (MIC) against Pseudomonas aeruginosa and against Candida was 250 µg/mL (≈ 1080 µM) throughout.

Consider `O=C(Cc1nc2ccccc2[nH]c1=O)Nn1c(-c2ccc(Cl)cc2)csc1=S`, for which the Activity in the series on Rattus norvegicus came to 0.45 mm.

In series [7], `CC[C@H]1C(=O)N(C)c2ccc(F)cc2N1C(=O)c1ccc(O)cc1O` returned a solubility above 100 µg/mL. Besides, in series [8], the concentration for half-maximal inhibition (IC50) amounted to 0.02 µM. Besides, the Activity in the series filed under Homo sapiens [9] is 96%; in the series listed under Homo sapiens [10], 36%. In series [11], the concentration for a half-maximal effect (EC50) is 0.169 µM. In [12], the half-life is above 30 min.

Take `O=c1[nH]c2ccccc2n2c(-c3ccc([N+](=O)[O-])cc3[N+](=O)[O-])ccc12`: the IC50 on Alpha amylase was 806.19 µM; in [1], 13.6 µM; in series [2] it was 2.58 µM; against Phospholipase A2 group V it was 1.53 µM; in [3], 0.76 µM; in series [4] it was 1.05 µM.

In the case of `O=C(CC1CCc2cc(Br)cc3[nH]c(=O)c(=O)n1c23)Nc1ccccc1` (centres undefined), the values for the concentration for half-maximal inhibition (IC50) in [13], in series [14] and in [16] were 4.6 µM, above 25 µM and above 25 µM, respectively. In series [15], this compound registered a Ki of 0.0026 µM.

`O=C(CC1CCc2cc(Cl)cc3[nH]c(=O)c(=O)n1c23)Nc1ccccc1` (centres undefined) registered an inhibitory constant (Ki) in [15] of 0.0066 µM. In series [17], this compound registered an Activity of 79.3%.

Turning to `COc1ccc2nc(-c3ccccc3)c(=O)n(CC#N)c2c1`, the Activity in the series on Anopheles sp. [18] was 73.7%; in the series with Anopheles sp. [19] it was 60%; in the series on Anopheles sp. [20], 66.7%; with Anopheles sp. [21], 66.7%.

For the compound `CN1CC(=O)N(C)c2cc([N+](=O)[O-])ccc21`, the concentration for half-maximal inhibition (IC50) in the series with Trypanosoma brucei was 3.6 µM; in series [23], 78.2 µM. Moreover, in series [22], the selectivity ratio came out at 21.6.

As to `COc1ccc(N2CCN(CCCNC(=O)Cn3c(=O)c4cccn4c4cccnc43)CC2)cc1`, half-maximal inhibition in [24] (IC50) was put at 0.173 µM.

Take `O=C1CC(c2ccccc2)=NN1c1nc2ccccc2[nH]c1=O`: the minimum inhibitory concentration (MIC) against Bacillus anthracis stood at 7.8 µg/mL (≈ 25.6 µM); against Enterococcus faecalis, 7.8 µg/mL (≈ 25.6 µM); in the series with Klebsiella pneumoniae, 7.8 µg/mL (≈ 25.6 µM); in the series with Pseudomonas aeruginosa, 31.3 µg/mL (≈ 103 µM); against Bacillus subtilis it was 7.8 µg/mL (≈ 25.6 µM); in the series on Escherichia coli, 15.6 µg/mL (≈ 51.3 µM). For the same compound, the figures for the minimal inhibitory concentration (MIC) (against Shigella dysenteriae; in the series on Bacillus cereus; in [6]) were 62.5 µg/mL (≈ 205 µM), 7.8 µg/mL (≈ 25.6 µM) and 15.6 µg/mL (≈ 51.3 µM), respectively.

In the case of `COc1ccc2ncc(=O)n(CC[C@H]3OC[C@H](NCc4cc5c(cn4)OCCC5)CO3)c2c1`, the MIC amounted to 32 µg/mL (≈ 70.7 µM) against Staphylococcus aureus [25] and 8.16 µg/mL (≈ 18 µM) against Staphylococcus aureus [26].

For `O=C1Nc2cc([N+](=O)[O-])ccc2N2CCCC12` (centres undefined), the half-inhibitory concentration (IC50) in the series with Trypanosoma brucei was determined as 2.7 µM; in [23] it was 46.7 µM. For the same compound, the selectivity ratio in series [22] worked out at 17.4.

Compound `COc1ccc(N2CCN(CCCNC(=O)CN3C(=O)C4CCCN4c4c(C)ccnc43)CC2)cc1` (centres undefined) displayed a 50% inhibitory concentration (IC50) in series [24] of 2.82 µM.

The values above are taken from ChEMBL document CHEMBL5113380, “Functionalized quinoxalinones as privileged structures with broad-ranging pharmacological activities” (Eur J Med Chem, 2022).
